Values quoted from earlier work in patent publication US20030157171A1 (priority 2003, published 2003).

Row | Structure (SMILES) | water solubility (in words) | water solubility at pH values below 7.0 (pH below 7.0)
1 | COc1ccc2c(c1)c(CC(=O)O)c(C)n2C(=O)c1ccc(Cl)cc1 [Indomethacin] | poorly water soluble | –
2 | C[C@H](CCC(=O)O)[C@H]1CC[C@H]2[C@@H]3[C@@H](O)C[C@@H]4C[C@H](O)CC[C@]4(C)[C@H]3CC[C@]12C [Ursodeoxycholic Acid] | – | low
